Assay results from patent publication US8802723B2, “Metabolic syndrome-improving agent and medicine, supplement, functional food and food additive containing the same” (ARKRAY, Inc., priority 2005, dated 2014).

How the values were obtained:
[1] = system: adiponectin secretion in 3T3-L1 cells; assay: adiponectin secretion amount of 3T3-L1 adipocytes by ELISA; assay type: cell-based; details: for Adiponectin secretion amount: 3T3-L1 medium supernatant 7 days after differentiation induction, non-treatment control 3.49 ± 0.78, average ± standard error
Description: Next, culture preadipocytes 3T-L1 were thawed, inoculated in a 100 mm dish and cultured until 3T3-L 1 cells reached about 80% confluence. A single dish of 3T3-L1 that had reached about 80% confluence was subcultured to a single 6-well plate and further cultured until the 3T3-L1 cells reached confluence in the 6-well plate, and then the medium was replaced with the differentiation induction medium, followed by differentiation induction. 48 hours later, the medium was replaced with the differentiation promotion medium, and thereafter, the medium was replaced with the differentiation promotion medium every two days. 7 days after the initiation of the differentiation induction, mRNA was extracted using Sepasol(R)—RNA I super (manufactured by Nacalai Tesque, Inc.), and the mRNA expression amounts of 36B4, aP2 and adiponectin, which were indicators of an early period of adipocyte differentiation, were measured using Light Cycler™. Also, the medium 7 days after the differentiation induction was taken in an amount of 1 mL from each well, and the amount of adiponectin in the medium supernatant was measured using a mouse/rat adiponectin ELISA kit (trade name) (manufactured by Otsuka Pharmaceutical Co., Ltd.). […]
Only the strips of the antibody plates necessary for the analysis were taken out. […] 100 μL of the standard solutions with respective concentrations and 100 μL of the diluted analytes were added to individual wells and measured in duplicate. Incidentally, the standard solutions always were measured for each measurement and each plate. […] After 100 μL of the substrate solution was added to each well of the antibody plate and allowed to stand still for reaction for 15 minutes at room temperature, 100 μL of the reaction stop solution was added to each well of the antibody plate, and then the absorbance at 450 nm in each well was measured with a plate reader.

[2] = system: VLDL secretion in HepG2 cells; assay: VLDL secretion inhibition experiment in HepG2 cells (apoB100 ELISA); assay type: cell-based, human; details: for VLDL secretion ratio (%): HepG2, 30 hours, measurement group/control group, control (DMSO) = 100, average ± standard error
Description: FCS, a non-essential amino acid, sodium pyruvate and a glutamine solution were mixed such that the final concentrations of the FCS, the non-essential amino acid, the sodium pyruvate and the glutamine solution respectively were 10%, 1%, 1 mM and 2 mM, and added to an MEM medium (manufactured by SIGMA). They were mixed aseptically on a clean bench. In a 100 mm/Collagen-Coated Dish (trade name, manufactured by Iwaki Glass Works, Co.), the medium of HepG2 cells (human hepatic cells) that had been cultured to 80% to 90% confluence was removed with a pipette and washed with 2 mL of 1×PBS. After adding 2 mL of trypsin-EDTA and rotating the above-noted dish slowly so that trypsin-EDTA spread over the entire cells, this trypsin-EDTA was removed with a pipette. The dish was allowed to stand still for 15 minutes in a CO2 incubator (37° C., 5%), and then 4 mL of a growth medium was added to this dish, followed by mixing by pipetting. Then, 2 mL of this mixture was added to each of two dishes to which 3 mL of a growth medium was added in advance. These dishes were covered with lids and moved crisscross so as to mix the content. The cells were checked using a microscope (manufactured by Olympus Corporation) and cultured in a CO2 incubator (37° C., 5%). Three or four days later, after checking that 80% to 90% confluence was achieved using the microscope, subculture was carried out in a similar manner, followed by cell culture.
First, a VLDL standard solution was prepared. The VLDL standard solution was prepared by diluting 1.169 mg/mL of human VLDL standard (trade name, manufactured by CHEMICON International, Inc.) with a growth medium. The dilution factors were 100, 1000, 10000, 100000 and 1000000.
A sandwich ELISA that recognized human […] in the VLDL as an antigen was used. First, 100 μL of Moab×LDL Apolipoprotein B (ApoB) (manufactured under MONOSAN®) was dispensed in each well of ELISA PLATE, and the plate was sealed with a sterile seal and then allowed to stand still at 4° C. overnight. In the following, all the dispensing mentioned is for a single well. On the next day, 200 μL of Zepto Block (trade name, manufactured by ZeptoMetrix Corporation) was dispensed, and then the above-noted plate was sealed and allowed to stand still for 2 hours at room temperature for blocking. Subsequently, 100 μL of the medium and the VLDL standard solution were dispensed, and then the above-noted plate was sealed and allowed to stand still for 1 hour at room temperature. Washing with 200 μL of PBST and absorption using an aspirator were carried out five times in total. […] 100 μL of 1M phosphoric acid solution was added to the above-noted mixture solution, and the absorbance at 450 nm was measured using wallac ARVOsx (trade name, PerkinElmer Life Sciences, PerkinElmer, Inc.). […]

`CC(C)=CCC/C(C)=C/COc1ccc2ccc(=O)oc2c1` [Aurapten, aurapten] was tested, and the Adiponectin secretion amount ([1]; aurapten 1 μM) was 3.64 ± 0.82, the Adiponectin secretion amount ([1]; aurapten 5 μM) was 4.69 ± 0.16 and the “effect on adiponectin secretion in adipocytes (in words)” value ([1]; compared with non-treated control medium) was “enhance the secretion of adiponectin”. For the same compound, the “effect on VLDL secretion (in words)” value ([2]; 10-50 μM, degree of inhibition increased as concentration rose) was “VLDL secretion was inhibited”, the “VLDL secretion ratio (%)” value ([2]; aurapten 10 μM) was 63.1 ± 5.31% and the “VLDL secretion ratio (%)” value ([2]; aurapten 20 μM) was 61.6 ± 2.21%. For the same compound, the “VLDL secretion ratio (%)” value ([2]; aurapten 50 μM) was 45.6 ± 4.04%.
